Consider two molecules from US7947818B2, “Heteromolecular metal-humic (chelate) complexes” (priority 2007, dated 2011).

Experiment [1] deals with cucumber plants (sensitive variety, Anico). In words: Pot study: foliar Fe content of cucumber plants in basic, calcareous soil. Format: in vivo. The note with it: Fe dose 4 ppm; after 30 days of cultivation; soil pH=8.04, % CO3=23%. An excerpt:
Study of the effect of applying a heteromolecular humate-iron citrate complex in cucumber plants (sensitive variety, Anico) cultivated in a basic (pH=8.04), calcareous (% CO3=23%) soil. In this study, performed in pots, the effect of the synthesis chelate of reference in correcting iron chlorosis (Fe-EDDHA orto-orto isomer) was compared to the effect of the heteromolecular humate-Fe citrate complex prepared according to Example 1; in relation to these compounds' capacity to increase iron absorption in cucumber (v anico) plants sensitive to iron chlorosis. The results obtained after 30 days of cultivation are shown in the following figure, where the Fe-EDDHA chelate orto-orto isomer is called (o,o) and the heteromolecular complex is called (H-Cit). The Fe doses applied were: 4 ppm (o, o) and 4 and 8 ppm (H-Cit).

The next experiment relates to nectarine trees. Nature of the experiment: Field study: iron chlorosis and crop of nectarine trees in basic, calcareous soil. Type of experiment: in vivo. The note with it: dose d1 (5 g of Fe per tree). Here is the method: In this study, the effect of the heteromolecular humate-Fe citrate complex on nectarine trees cultivated in a basic, calcareous soil was analysed. This effect was compared to the effect of an Fe EDDHA chelate of reference. This test was performed in a field with a high chlorotic power, wherein a clear response to the standard Fe chelate (Fe EDDHA) is not observed.

Take `O=C([O-])C(NCCNC(C(=O)[O-])c1ccccc1[O-])c1ccccc1[O-].[Fe+3]` (single isomer, unassigned) [(o,o), Fe-EDDHA orto-orto isomer]: the “increase in foliar Fe content” value in experiment [1] is listed as “approximately 50%”.

Take Fe EDDHA [FeEDDHA]: in the experiment on nectarine trees, the “Commercial production increase with respect to control” value was “+57.9” and the “Crop 21 days after treatment” value is on record as 5.8 kg/tree. In the experiment on nectarine trees (leaves' green colour), the “Green colour (1-10) 62 days post-treatment” value is 5.3 and the “Green colour (1-10) 85 days post-treatment” value was 5.9.
